One data set relates to plasma proteins. As to the kind of experiment: Protein binding rate and reversible binding rate. The data set is classed as in vitro ADME. As for the experimental part: (§1) The combination of drugs and plasma proteins is usually reversible, and the affinity strength is determined by the reversible binding rate of the drug-protein complex. Only free drugs can spread to the tissue through the lipid membrane. By modifying the structure of the drug, the effect of the drug on the target site can be improved by improving the reversible binding rate of the drug-protein complex.
(§2) The acidic part of polyphenol hydroxyl group is combined with lysine alkaline site in albumin structure. The protein binding rate and reversible binding rate of CH-j see TABLE 2.

Data set [1] can be described thus: Protein binding rate and reversible binding rate. The data set is classed as in vitro ADME. The note with it: plasma proteins. As for the experimental part:
as §1, §2

A short description of data set [2]: Pharmacokinetics by oral in monkey (urine drug concentration-time curve). The note with it: monkey (n = 6), 3 mg/kg in Table 4, 5 mg/kg in text. The format is in vivo. As for the experimental part: Chromatographic conditions and the system applies: with C18 chromatographic column (acid the tall secretory effect, 5 μm, 4.6*150 mm), in acetonitrile-methanol-water-mesylate (25:20:55:0.15) as mobile phase, detection UV 283 nm, the velocity 1 ml/min, and the sample volume 20 μl. The theoretical plate number is not less than 2000 according to CH-j peak.
Sample solution: after the macaques were drugged, the catheter was inserted. The urine by oral CH-j 5 mg/kg is collected, added the methanol at 1:4 (v:v), centrifuge and remove the liquid to measure. Control solution is CH-j methanol solution 5 μg/ml. The log P of CH-j is larger, the fat solubility strong, and absorption distribution in the body very rapid, the urine drug concentration-time curve consistent with the typical two-compartment model. Tmax1, 1.3 h, Cmax1 is […]. […] The apparent distribution volume (Vd) 42 L, mainly distributed in body fluid (BA-j Vd 12.6 L, mainly distributed in blood. See Fitoterapia, 2015, 107: 36-34)
FIG. 5: The concentration of urine drug concentration-time curve in monkey (n=6) by CH-j oral 5 mg/kg, X-coordinate is oral CH-j time (h) and Y-coordinate is the concentration of CH-j (μM).

For another data set, the target named is CDK1 (Homo sapiens, UniProt P06493). As to the kind of experiment: CDK1 inhibition activity. The data set is classed as biochemical. To be noted: read-out: inhibiting CDK1 CC50.
Data set [3] is described as follows: Solubility in Octanol, water and pH media. The data set is classed as physicochemical. The note with it: 37° C. The procedure: (§3) The solubility and log P of acetyl ChrysinMannich base derivatives see TABLE 1.
(§4) CH-j is pKa 5.3, log P 1.63 in Octanol/Water at 37° C. […] (BA-j 77m/ml). CH-j belongs to BCS II (low solubility, high permeability) and solubility presents the pH dependence. […] CH-j is a pH dependent fast release. […] It is speculated that CH-j has more appropriate log P and solubility with more likely entering tissue cells than others solubility acetyl Chrysin Mannich base derivatives.
(§5) (about 20 times BA-f 277 μg/ml) and 564 μg/ml in water at 37° C. (about 1000 times BA-f 0.53m/ml). CH-f is BCS I (high solubility and permeability) and solubility presents the pH dependence. It is speculated that CH-f has more appropriate log P and solubility with entering systemic (blood system and tissue cells) than others solubility acetyl Chrysin Mannich base derivatives.

Data set [4] is described as follows: Tissue distribution in rat, 2 h. The data set is classed as in vivo. To be noted: rat. As for the experimental part: The distribution results of CH-j tissue distribution were shown in FIG. 6, when CH-j 100 mg/kg rat by venous intravenous (i.v.) or oral (p.o.) 2 h. […] CH-j by oral in the stomach concentration of the large, about 2 time higher than other tissues. […] Compared with the intravenous administration, the oral administration was completely absorbed and the bioavailability was close to 100%.
FIG. 6: 2 h distribution of the drug (100 mg/kg) by CH-j rats: Y-coordinate is the concentration of CH-j (μg/g), by intravenous (i.v.), by oral (p.o.).

Data set [5] is described as follows: Pharmacokinetics by oral in monkey (urine drug concentration-time curve). The format is in vivo. To be noted: rhesus, monkey (n = 6), 3 mg/kg.
For data set [6] the following is noted: BA-j, see Fitoterapia, 2015; cited from earlier work.
The next data set is described as follows: pKa. The data set is classed as physicochemical. As for the experimental part:
as §4, §5

Data set [7] deals with MCF-7. As to the kind of experiment: Autophagy in MCF-7. The format is cell-based. The note with it: 50 μM for 9 h and 24 h.
The subject of another data set is BGC-823. As to the kind of experiment: Anti-cancer cells proliferation activity (MTT, 48 h). The format is cell-based. To be noted: Homo sapiens, BGC-823, MTT. As for the experimental part:
(§6) Anti-cancer cells proliferationactivity of in vitro CH-j and CH-f were shown in TABLE 2 for the results of the screening of 5 cancers cells.
FIG. 2: The initial screening results of the anticancer activity of BGC-823 (MTT, for 48 h), and X-coordinate is the drug concentration (MTT, for 48 h), and Y-coordinate the cell survival rate (%) in vitro.

The conditions of data set [8]: oral, liver first pass effect; cited from earlier work.
For data set [9], the system named is PBMCs, activated lymphocytes, human normal Liver cells. The experiment in a line: H2O2 level in blood and normal cells, PF1-H2O2 fluorescent probe. The data set is classed as cell-based. The note with it: CH-j: PBMCs and activated lymphocytes; BA-j: activated lymphocyte. As for the experimental part:
The cells are cancer cells (MCF-7, GBC-823, Hep G2) and normal cells (Liver, COS-7, PBMCs). According to the literature [Scientific Reports, 2015, 5: 13626; Anti-cancer Agents in Medicinal Chemistry, 2016, 16: 914-924.], in vitro cultured cells was given to CH-j 25 μM for 3.5 h, added PF1-H2O2 selective fluorescence probe 10 μM for 0.5 h and detected the concentration of H2O2 in cells, and performed fluorescence imaging by results shown in FIG. 1.
FIG. 1-3, FIG. 1-4, The fluorescence imaging by PF1-H2O2 10 μM is that CH-j […] for 4 h affected the level of H2O2 in MCF-7, GBC-823, Hep G2 and Liver.
FIG. 1-3: CH-j/BA-j affects the levels of H2O2 in blood cells, X-coordinate is the concentration of CH-j/BA-j concentration (μM), and Y-coordinate the intracellular levels of H2O2 (μM) for 4 h with PF1-H2O2 10 μM by Fluorescence Microplater Reader (488 nm/525 nm).

Data set [10] deals with 5 cancers cells (MCF-7, H-460, BGC-823, PC-3, Hep G2). As to the kind of experiment: Anti-cancer cells proliferation activity, average of 5 cancer cells. To be noted: average of 5 cancer cells. The format is cell-based.
Text: as §6

In another data set the test system is Hep G2. The experiment in a line: Anti-cancer cells proliferation activity (MTT, 48 h). The note with it: Homo sapiens, HepG2. The format is cell-based.
Text: as §6

The test system of data set [11] is MCF-7. The description is as above. The data set is classed as cell-based. The note with it: Homo sapiens, MCF7, MCF-7, MTT.
Text: as §6

The subject of the next data set is PC-3. The description is as above. The data set is classed as cell-based. To be noted: Homo sapiens, PC-3, MTT.
Text: as §6

For a further data set, the system named is H-460. The description is as above. The data set is classed as cell-based. The note with it: Homo sapiens, NCI-H460, H-460, MTT.
Text: as §6

A short description of a further data set: log P in Octanol/Water. The format is physicochemical. To be noted: octanol/water, Octanol/Water at 37° C. The procedure:
as §3, §4, §5

The conditions of data set [12]: in vivo; cited from earlier work.

≈ marks a conversion by molar mass, not a printed value. Read-outs that look alike come from different tables or passages of the source. Bounds are passed on as bounds.

Chain of CDK1 (P06493 whole entry, species assumed): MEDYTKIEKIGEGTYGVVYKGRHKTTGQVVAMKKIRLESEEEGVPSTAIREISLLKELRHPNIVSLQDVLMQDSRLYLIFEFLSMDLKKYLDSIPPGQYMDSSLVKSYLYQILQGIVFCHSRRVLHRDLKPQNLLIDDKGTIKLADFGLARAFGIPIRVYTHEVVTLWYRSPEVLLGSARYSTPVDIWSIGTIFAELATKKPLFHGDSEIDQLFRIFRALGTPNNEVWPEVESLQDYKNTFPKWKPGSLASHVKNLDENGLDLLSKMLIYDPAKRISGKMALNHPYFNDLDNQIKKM
Chain of CDK1 (P14635 whole entry partner, species assumed): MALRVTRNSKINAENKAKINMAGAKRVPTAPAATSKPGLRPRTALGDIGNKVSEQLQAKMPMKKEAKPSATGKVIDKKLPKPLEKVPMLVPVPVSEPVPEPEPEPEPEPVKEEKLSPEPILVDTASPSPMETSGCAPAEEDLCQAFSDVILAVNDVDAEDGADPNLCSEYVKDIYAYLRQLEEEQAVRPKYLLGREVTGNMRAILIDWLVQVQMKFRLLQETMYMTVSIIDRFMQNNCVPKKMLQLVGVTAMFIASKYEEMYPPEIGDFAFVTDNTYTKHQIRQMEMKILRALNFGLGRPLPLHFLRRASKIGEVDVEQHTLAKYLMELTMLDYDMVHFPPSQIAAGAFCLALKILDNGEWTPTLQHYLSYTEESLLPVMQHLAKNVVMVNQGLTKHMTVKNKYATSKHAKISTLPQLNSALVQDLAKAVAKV

Usually Cmax stands for the highest concentration seen after dosing. For orientation: solubility means the dissolved amount per volume that the medium holds. Usually AUC(0-inf) stands for the area under the concentration-time curve extrapolated to infinity. Broadly, the pKa is the negative logarithm of the acid dissociation constant. One may read the IC50 as the midpoint of a concentration-inhibition curve. The term logP denotes the decadic logarithm of the partition coefficient of the neutral form, usually between octanol and water. Regarding `O=c1cc(-c2ccccc2)oc2c(CN3CCC(O)CC3)c(O)c(O)c(O)c12` [BA-j, 5,6,7-trihydroxy-8-(4-hydroxy-piperidin-1-ylmethyl)-2-phenyl-chromen-4-one, reference compound], the “Reversie binding rate AV” value in the data set on plasma proteins (average of 3 concentrations) came to 20.1%. In addition, the Reversie binding rate in the data set on plasma proteins (drug concentration 12.5 μg/ml) amounted to 19.1%; in the data set on plasma proteins (drug concentration 25 μg/ml), 21.0%; in the data set on plasma proteins (drug concentration 50 μg/ml), 20.2%. Further, in [1] (average of 3 concentrations, read-out: Protein binding rate AV (converted)), the fraction unbound is 0.082. In addition, the fraction unbound at 12.5 μg/ml in data set [1] (drug concentration 12.5 μg/ml) is 0.067. Moreover, the fraction unbound at 25 μg/ml in data set [1] (drug concentration 25 μg/ml) is 0.075. Moreover, the fraction unbound at 50 μg/ml in [1] (drug concentration 50 μg/ml) was 0.104. In addition, the V d in [2] (oral) and in [6] was 12.6 L each time. In addition, the t1/2β in data set [2] (oral) is listed as 4.2 h. Further, the Tmax in [2] (rhesus, monkey, urine, po, read-out: T max (Tmax1)) came out at 2 h. The same compound had a Cmax in data set [2] (rhesus, urine, oral) of 25.4 µM. The CDK1 50% inhibitory concentration at CDK1 was determined as 300 nM. In addition, the solubility was 377 µg/mL (≈ 983 µM) in data set [3] (organic solvent or mixture, Octanol, read-out: Solubility in Octanol); 77 µg/mL (≈ 201 µM) in data set [3] (water, text values of BA-j and BA-f, read-out: Solubility in water). Also, the “Detection of prototype drug in blood, urine, tissues” value in data set [4] is on record as “prototype drug can not be detected in the tissues”. The same compound showed an AUC(0-inf) in data set [5] of 71.5 µM·h. Besides, in the data set “pKa”, the pKa worked out at 5.5. The Autophagy result in the data set with MCF-7 [7] was “without”. Besides, the IC50 is 12.3 ± 1.73 µM in the data set with BGC-823; 4.7 µg/mL in data set [10]; 12.3 µM in [10] (MTT, 48 h); 15.7 ± 1.3 µM with Hep G2; 10.6 ± 0.3 µM in the data set with MCF-7 [11]; 12.8 ± 2.06 µM with PC-3. In the data set with H-460, 13.7 ± 1.83 µM corresponded to half-maximal inhibition (IC50). For the same compound, the “Glucose aldehyde acid metabolism” value in [8] was less than 5%. Besides, the “Dose dependence of H2O2 level” value in data set [9] was “significant dose-dependent manner, with mass apoptosis and without necrosis”. The compound also showed a log partition coefficient (logP) in “log P in Octanol/Water” of 0.69.
`CN1CC[C@H](c2c(O)cc(O)c3c(=O)cc(-c4ccccc4Cl)oc23)[C@H](O)C1` [Flavopiridol]: the “Intravenous drip steady plasma concentration” value in data set [12] is 0.27 µM.

(Values after US10471054B2, “CDK1 inhibitors of acetyl chrysin mannich base derivatives, synthesis and use thereof” (priority 2016, dated 2019).)
